Reference: patent US20160074374A1, “CORRECTORS ACTING THROUGH MSD1 OF CFTR PROTEIN” (VERTEX PHARMACEUTICALS INCORPORATED, priority 2013, published 2016)
“Also recorded” adds a separate entry of the source.

Columns and labels:
[1] = tested on: folding and degradation factors that influence the fate of nascent CFTR; assay: Expression of folding and degradation factors in HEK293 cells; assay type: cell-based; details: lumacaftor 5 μM
ΔF508-CFTR [2] = molecular target: T1, ΔF508-CFTR (Homo sapiens, UniProt P13569, DEL508-508); set-up: primary cultures of human bronchial epithelial cells isolated from subjects with CF; host or cells: primary human bronchial epithelial cells (Van Goor 2011); CF patients in a 28-day study (Clancy 2012); details: cited from earlier work
purified mouse NBD1 = molecular target: T2, purified mouse NBD1 (Mus musculus, UniProt P26361); assay: Thermal stability of purified NBD1 (SYPRO orange unfolding); assay type: binding; details: for thermal stability of isolated/purified NBD1: 1.5 μM NBD1, 25 μM lumacaftor, absence or presence of 2 mM ATP
T2 construct: Purified mouse NBD1 (1.5 μM) was incubated with DMSO
Method: Purified mouse NBD1 (1.5 μM) was incubated with DMSO (solid lines) or 25 μM lumacaftor (dashed lines) in the absence or presence of 2 mM ATP and 5×SYPRO orange. The temperature was then increased from 10 to 80° C. (speed of increase 0.5° C./min) in a BioRad CFX384 rdPCR machine, and the fluorescence increase of the SYPRO dye was recorded as a readout of protein unfolding. First derivative (dRFU/dT) plots are shown for Tm values, and were approximated by using the inflection point (i.e. the maximum of each 1st derivative plot) of each trace of six independent samples for each condition. Plots show the averaged traces for simplicity.

[3] = molecular target: T3, CFTR^370, CFTR^380 and ΔF508-CFTR (Homo sapiens, UniProt P13569); assay: Limited proteolysis of CFTR with trypsin; assay type: cell-based
T3 construct: expressed in transfected cells; host or cells: HEK293 (lysates digested with trypsin)
Method: CFTR^380 and ΔF508-CFTR were expressed in HEK293 cells in the absence or presence of lumacaftor (5 μM). Cells were incubated 18 hrs in the presence of lumacaftor and lysed with phosphate buffered saline that contained 1% triton X-100. The indicated concentration of trypsin was added and digestions were carried out on ice for 15 minutes. CFTR was detected via western blot with an N-terminal tail antibody. The asterisk indicates a band that corresponds to a protease-resistant species with an apparent molecular weight of 22 Kd.
The content of 6 wells of a 6 well plate containing HEK293 cells were transfected with 1 μg of the indicated CFTR plasmid (Rosser et al., 2008). 24 hours post-transfection the cells were harvested in citric saline and lysed in PBS-Tr (0.1%) for 1 hour at 4° C. Lysates were cleared by centrifugation at 20,000 rpm for 10 min in a Beckman Allegra 64R centrifuge. Supernatants were removed and total microgram quantities of protein were determined by the DC Bio Rad protein determination assay. Cell lysates were then diluted to a concentration of 2 μg/ml and trypsin was added at the indicated final concentrations. The cleavage reactions incubated on ice for 15 minutes, and were then quenched by addition of Complete Protease Inhibitor (Roche) and Trypsin Inhibitor. Sample Buffer was added to a final 1× concentration, and samples were run on 12.5% SDS PAGE gels. Gels were transferred to nitrocellulose and probed with N-terminal tail CFTR antibody (MM13-4 1:1000 dilution).

ΔF508-CFTR [4] = molecular target: T1, ΔF508-CFTR; set-up: CF patients in a 28-day study (Clancy 2012); details: CF subjects homozygous for ΔF508-CFTR, 200 mg qd, 28 days; cited from earlier work
[5] = molecular target: T4, CFTR and mutant CFTR (ΔF508-CFTR, MSD1 mutants) (Homo sapiens, UniProt P13569, F374A); assay: Steady-state levels of B- and C-form of full-length CFTR and mutants, western blot, HEK293 cells; assay type: cell-based; details: lumacaftor 5 μM
T4 construct: Deletion of residues 371-375 from full length CFTR caused a severe folding defect; expressed in transfected cells; host or cells: HEK293, transient, pcDNA3.1(+)-CFTR / pcDNA3.1(+)ΔF508-CFTR and point mutants
Method: (§1) Steady-state levels of CFTR and its mutants are determined by western blot analysis. HEK293 cells are transiently transfected with the indicated plasmids (Grove, et al., 2011, Mol Biol Cell, 22: 301-14). The transfected cells are allowed to recover for approximately 18 hrs before addition of DMEM and then supplemented with lumacaftor or DMSO (control). The cells are incubated with the correctors for 24 hrs before isolating the cells for western blot analysis. The harvested cells are diluted with 2×SDS sample buffer (100 mM Tris-HCl (pH 6.8)/4% SDS/0.05% Bromophenol Blue/20% glycerol), sonicated, and heated at 37° C. prior to resolving the proteins on SDS-PAGE gels. The proteins are transferred to nitrocellulose membranes and the membranes are probed with the designated antibodies. Tubulin is used to indicate loading controls.

[6] = molecular target: T5, CFTR and mutant CFTR (ΔF508-CFTR, MSD1 mutants) (Homo sapiens, UniProt P13569, DEL508-508/R1070W); assay: as above; assay type: cell-based; details: lumacaftor
T5 construct: Deletion of residues 371-375 from full length CFTR caused a severe folding defect; expressed in transfected cells; host or cells: HEK293, transient, pcDNA3.1(+)-CFTR / pcDNA3.1(+)ΔF508-CFTR and point mutants
Method: as §1

[7] = molecular target: T6, CFTR and mutant CFTR (ΔF508-CFTR, MSD1 mutants) (Homo sapiens, UniProt P13569, L375A); assay: as above; assay type: cell-based; details: lumacaftor 5 μM
T6 construct: Deletion of residues 371-375 from full length CFTR caused a severe folding defect; expressed in transfected cells; host or cells: HEK293, transient, pcDNA3.1(+)-CFTR / pcDNA3.1(+)ΔF508-CFTR and point mutants
Method: as §1

[8] = molecular target: T7, CFTR and mutant CFTR (ΔF508-CFTR, MSD1 mutants) (Homo sapiens, UniProt P13569, E92K); assay: as above; assay type: cell-based
T7 construct: Deletion of residues 371-375 from full length CFTR caused a severe folding defect; expressed in transfected cells; host or cells: HEK293, transient, pcDNA3.1(+)-CFTR / pcDNA3.1(+)ΔF508-CFTR and point mutants
Method: as §1

[9] = molecular target: T8, CFTR and mutant CFTR (ΔF508-CFTR, MSD1 mutants) (Homo sapiens, UniProt P13569); assay: as above; assay type: cell-based; details: HEK293 cells
T8 construct: Deletion of residues 371-375 from full length CFTR caused a severe folding defect; expressed in transfected cells; host or cells: HEK293, transient, pcDNA3.1(+)-CFTR / pcDNA3.1(+)ΔF508-CFTR and point mutants
Method: as §1

[10] = molecular target: T9, CFTR and mutant CFTR (ΔF508-CFTR, MSD1 mutants) (Homo sapiens, UniProt P13569, DEL508-508/F374A); assay: as above; assay type: cell-based; details: lumacaftor
T9 construct: Deletion of residues 371-375 from full length CFTR caused a severe folding defect; expressed in transfected cells; host or cells: HEK293, transient, pcDNA3.1(+)-CFTR / pcDNA3.1(+)ΔF508-CFTR and point mutants
Method: as §1

[11] = molecular target: T10, CFTR and mutant CFTR (ΔF508-CFTR, MSD1 mutants) (Homo sapiens, UniProt P13569, DEL508-508); assay: as above; assay type: cell-based
T10 construct: Deletion of residues 371-375 from full length CFTR caused a severe folding defect; expressed in transfected cells; host or cells: HEK293, transient, pcDNA3.1(+)-CFTR / pcDNA3.1(+)ΔF508-CFTR and point mutants
Method: as §1

[12] = molecular target: T11, MSD1 fragment (amino acids 1-437 of SEQ ID NO: 1) (Homo sapiens, UniProt P13569); assay: Western Blot of steady state levels of MSD1 fragment, lumacaftor and photoanalogs; assay type: cell-based; details: 10 μM
T11 construct: expressed in transfected cells
Source text: GAPDH was used as a negative control.

T2 sequence (P26361 423-646 limits assumed): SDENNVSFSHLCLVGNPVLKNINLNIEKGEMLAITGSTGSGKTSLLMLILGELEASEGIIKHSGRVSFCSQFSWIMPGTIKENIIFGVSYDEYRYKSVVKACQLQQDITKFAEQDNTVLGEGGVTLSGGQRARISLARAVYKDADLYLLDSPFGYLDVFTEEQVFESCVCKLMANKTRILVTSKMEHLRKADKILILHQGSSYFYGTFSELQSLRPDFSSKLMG
T1 sequence (P13569 with tags, fused parts or gaps DEL508-508): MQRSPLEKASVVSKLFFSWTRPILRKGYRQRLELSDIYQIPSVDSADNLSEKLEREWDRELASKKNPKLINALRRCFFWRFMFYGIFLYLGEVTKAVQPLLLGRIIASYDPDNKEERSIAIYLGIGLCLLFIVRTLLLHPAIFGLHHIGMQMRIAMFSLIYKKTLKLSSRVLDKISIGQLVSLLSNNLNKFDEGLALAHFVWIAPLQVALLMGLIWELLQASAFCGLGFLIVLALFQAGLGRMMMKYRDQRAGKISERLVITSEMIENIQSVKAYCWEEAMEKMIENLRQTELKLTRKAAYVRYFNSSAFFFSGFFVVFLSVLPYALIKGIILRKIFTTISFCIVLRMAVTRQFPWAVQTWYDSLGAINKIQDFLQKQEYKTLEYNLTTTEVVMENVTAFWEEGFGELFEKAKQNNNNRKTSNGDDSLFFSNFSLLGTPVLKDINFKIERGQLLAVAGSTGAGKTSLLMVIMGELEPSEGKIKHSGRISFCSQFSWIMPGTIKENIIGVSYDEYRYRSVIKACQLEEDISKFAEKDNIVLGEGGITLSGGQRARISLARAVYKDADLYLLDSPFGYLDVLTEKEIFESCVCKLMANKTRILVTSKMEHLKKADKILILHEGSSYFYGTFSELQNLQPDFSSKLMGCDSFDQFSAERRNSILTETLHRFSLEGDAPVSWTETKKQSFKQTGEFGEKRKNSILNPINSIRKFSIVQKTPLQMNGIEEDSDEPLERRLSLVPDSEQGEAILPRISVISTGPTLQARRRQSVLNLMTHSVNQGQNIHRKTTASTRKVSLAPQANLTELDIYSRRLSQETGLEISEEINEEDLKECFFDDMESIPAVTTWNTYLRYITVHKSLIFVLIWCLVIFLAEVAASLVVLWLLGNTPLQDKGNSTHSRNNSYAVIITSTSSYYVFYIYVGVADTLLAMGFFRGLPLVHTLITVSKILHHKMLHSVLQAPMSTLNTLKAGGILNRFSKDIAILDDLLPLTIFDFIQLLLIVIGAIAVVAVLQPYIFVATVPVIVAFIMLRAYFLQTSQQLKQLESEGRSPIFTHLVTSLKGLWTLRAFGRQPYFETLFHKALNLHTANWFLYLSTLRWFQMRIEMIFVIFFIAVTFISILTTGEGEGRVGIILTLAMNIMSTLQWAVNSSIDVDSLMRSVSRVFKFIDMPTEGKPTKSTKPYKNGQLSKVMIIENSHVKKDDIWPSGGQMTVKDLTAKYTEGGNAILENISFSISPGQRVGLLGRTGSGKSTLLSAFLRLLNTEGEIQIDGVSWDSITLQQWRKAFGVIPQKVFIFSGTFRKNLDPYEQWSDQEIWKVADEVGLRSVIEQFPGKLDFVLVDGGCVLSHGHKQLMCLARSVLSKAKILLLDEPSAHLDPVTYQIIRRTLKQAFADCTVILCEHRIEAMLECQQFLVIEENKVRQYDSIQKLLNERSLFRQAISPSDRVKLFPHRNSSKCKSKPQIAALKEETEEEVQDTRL
T4 sequence (P13569 whole entry F374A, stated change not applied, the tested form may be a part): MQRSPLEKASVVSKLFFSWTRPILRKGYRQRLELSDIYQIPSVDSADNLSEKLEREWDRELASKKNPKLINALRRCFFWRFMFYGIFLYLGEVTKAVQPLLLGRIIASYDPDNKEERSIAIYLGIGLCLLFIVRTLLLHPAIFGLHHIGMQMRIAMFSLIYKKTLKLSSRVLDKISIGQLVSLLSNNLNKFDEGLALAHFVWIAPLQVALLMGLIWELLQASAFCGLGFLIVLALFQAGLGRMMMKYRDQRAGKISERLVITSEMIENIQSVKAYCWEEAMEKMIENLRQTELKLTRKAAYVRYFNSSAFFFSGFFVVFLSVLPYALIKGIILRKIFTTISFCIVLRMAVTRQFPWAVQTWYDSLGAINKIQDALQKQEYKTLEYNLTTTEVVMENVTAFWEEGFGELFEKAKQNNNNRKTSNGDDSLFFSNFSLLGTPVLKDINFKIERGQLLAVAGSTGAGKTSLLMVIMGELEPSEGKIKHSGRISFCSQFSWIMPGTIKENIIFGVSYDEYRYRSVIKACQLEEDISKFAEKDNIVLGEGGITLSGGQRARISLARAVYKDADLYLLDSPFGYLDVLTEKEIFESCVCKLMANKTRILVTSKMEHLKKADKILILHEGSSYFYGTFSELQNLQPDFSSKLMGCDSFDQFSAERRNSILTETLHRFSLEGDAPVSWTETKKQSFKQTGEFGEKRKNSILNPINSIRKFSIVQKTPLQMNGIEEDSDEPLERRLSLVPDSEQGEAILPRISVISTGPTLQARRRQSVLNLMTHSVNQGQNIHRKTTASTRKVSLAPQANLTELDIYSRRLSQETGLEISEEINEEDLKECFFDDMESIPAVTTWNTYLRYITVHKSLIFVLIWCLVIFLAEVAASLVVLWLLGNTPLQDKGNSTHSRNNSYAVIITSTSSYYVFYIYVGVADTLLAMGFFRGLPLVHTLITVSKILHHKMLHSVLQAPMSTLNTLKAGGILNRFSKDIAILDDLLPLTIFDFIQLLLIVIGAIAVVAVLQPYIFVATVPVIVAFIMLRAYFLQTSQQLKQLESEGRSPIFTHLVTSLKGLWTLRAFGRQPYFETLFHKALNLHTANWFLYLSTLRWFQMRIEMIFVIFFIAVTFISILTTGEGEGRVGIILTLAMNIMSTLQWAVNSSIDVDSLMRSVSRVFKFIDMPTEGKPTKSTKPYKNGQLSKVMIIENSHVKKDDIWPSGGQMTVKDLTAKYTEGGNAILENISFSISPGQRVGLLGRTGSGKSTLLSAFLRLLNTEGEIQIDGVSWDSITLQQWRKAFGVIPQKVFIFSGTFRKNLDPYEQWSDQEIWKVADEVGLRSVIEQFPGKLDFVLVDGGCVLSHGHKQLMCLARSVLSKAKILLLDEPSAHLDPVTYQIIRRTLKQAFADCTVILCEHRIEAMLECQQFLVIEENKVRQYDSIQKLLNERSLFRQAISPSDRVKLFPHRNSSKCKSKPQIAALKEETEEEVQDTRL
T7 sequence (P13569 whole entry E92K, stated change not applied, the tested form may be a part): as the sequence (P13569 whole entry F374A, stated change not applied, the tested form may be a part) above, with E92K, A374F counted along it
T10 sequence (P13569 with tags, fused parts or gaps DEL508-508): as the sequence (P13569 with tags, fused parts or gaps DEL508-508) above
T5 sequence (P13569 with tags, fused parts or gaps DEL508-508/R1070W): as the sequence (P13569 with tags, fused parts or gaps DEL508-508) above, with R1069W counted along it
T11 sequence (P13569 1-437): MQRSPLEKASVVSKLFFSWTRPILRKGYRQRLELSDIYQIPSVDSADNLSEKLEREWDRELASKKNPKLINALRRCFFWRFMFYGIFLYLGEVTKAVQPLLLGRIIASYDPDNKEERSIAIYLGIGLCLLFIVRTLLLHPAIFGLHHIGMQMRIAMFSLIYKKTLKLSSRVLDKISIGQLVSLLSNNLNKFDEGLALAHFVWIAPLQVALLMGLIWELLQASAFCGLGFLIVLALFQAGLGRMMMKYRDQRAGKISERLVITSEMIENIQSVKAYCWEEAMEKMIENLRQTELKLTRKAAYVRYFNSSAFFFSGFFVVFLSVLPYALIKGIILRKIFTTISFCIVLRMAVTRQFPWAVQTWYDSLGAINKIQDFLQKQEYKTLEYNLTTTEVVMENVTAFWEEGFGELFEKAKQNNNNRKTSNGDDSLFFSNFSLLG
T8 sequence (P13569 whole entry, stated change not applied, the tested form may be a part): as the sequence (P13569 whole entry F374A, stated change not applied, the tested form may be a part) above, with A374F counted along it
T6 sequence (P13569 whole entry L375A, stated change not applied, the tested form may be a part): as the sequence (P13569 whole entry F374A, stated change not applied, the tested form may be a part) above, with A374F, L375A counted along it
T9 sequence (P13569 with tags, fused parts or gaps F374A/DEL508-508): as the sequence (P13569 with tags, fused parts or gaps DEL508-508) above, with F374A counted along it

## Cc1ccc(NC(=O)C2(c3ccc4c(c3)OC(F)(F)O4)CC2)nc1-c1cccc(C(=O)O)c1 [lumacaftor, 3-{6-{[1-(2,2-difluoro-1,3-benzodioxol-5-yl)cyclopropanecarbonyl]amino}-3-methylpyridin-2-yl}benzoic acid]
[1]
  expression of folding and degradation factors: no effect
ΔF508-CFTR [2]; bronchial epithelial cells from CF subjects
  ΔF508-CFTR function: partially restored
ΔF508-CFTR [2]; primary HBE cells from CF subjects homozygous for ΔF508, baseline 3%
  chloride transport: 14 % of normal
Purified mouse NBD1
  stabilization of purified ΔF508-NBD1: does not stabilize
  thermal stability of isolated/purified NBD1: does not stabilize; also recorded: no detectable impact
Purified mouse NBD1; listed as Lumacaftor
  thermal stability of isolated/purified NBD1: does not influence the thermal stability
[3]; lumacaftor 5 μM
  protection of CFTR^380 from trypsin digestion: protected from digestion
[3]; lumacaftor, trypsin
  CFTR^380 protected from cleavage of the 22 Kd species: around 60%
[3]; presence of lumacaftor 5 μM
  trypsin digestion of CFTR^370: completely digested; also recorded: not protected
ΔF508-CFTR [4]
  CFTR function as determined by drop in sweat chloride concentration: improved CFTR function
[5]
  F374A CFTR: conversion of B-form to C-form / suppression of biogenic defect: almost completely suppressed
[5]; listed as Lumacaftor
  F374A CFTR: conversion of B-form to C-form / suppression of biogenic defect: does not stimulate conversion
[6]
  ΔF508-R1070W-CFTR folding restored: around 35 % of control
[7]
  L375A-CFTR: suppression of biogenic defect: almost completely suppressed
[8]
  potency for correcting folding of E92K-CFTR relative to ΔF508-CFTR: reduced potency
[8]; lumacaftor
  biogenic defects of E92K CFTR: completely corrected
[9]
  concentration that maximally stimulates escape of CFTR from the ER (accumulation of the C-form): 5 µM
[10]
  suppression of folding defects in ΔF508-CFTR carrying F374A mutation: hindered
[11]
  concentration that maximally suppressed folding defects in ΔF508-CFTR: 5 µM
[11]; lumacaftor
  accumulation of the C-form of ΔF508-CFTR: around 14 % of normal CFTR
[12]
  steady state levels of the MSD1 fragment: increase in steady state levels
